For series [1], the system named is O=S(=O)(O)CCO. Description: purified protein. The settings on record: anoxic; IslB-activated enzyme; NADH in coupling assay.
Series [2] has as its target T1, Tpa (taurine:pyruvate aminotransferase) (Bilophila wadsworthia, UniProt E5Y945).
T1 construct: His-tagged, E. coli Rosetta 2 DE3
T1 sequence (E5Y945 1-456): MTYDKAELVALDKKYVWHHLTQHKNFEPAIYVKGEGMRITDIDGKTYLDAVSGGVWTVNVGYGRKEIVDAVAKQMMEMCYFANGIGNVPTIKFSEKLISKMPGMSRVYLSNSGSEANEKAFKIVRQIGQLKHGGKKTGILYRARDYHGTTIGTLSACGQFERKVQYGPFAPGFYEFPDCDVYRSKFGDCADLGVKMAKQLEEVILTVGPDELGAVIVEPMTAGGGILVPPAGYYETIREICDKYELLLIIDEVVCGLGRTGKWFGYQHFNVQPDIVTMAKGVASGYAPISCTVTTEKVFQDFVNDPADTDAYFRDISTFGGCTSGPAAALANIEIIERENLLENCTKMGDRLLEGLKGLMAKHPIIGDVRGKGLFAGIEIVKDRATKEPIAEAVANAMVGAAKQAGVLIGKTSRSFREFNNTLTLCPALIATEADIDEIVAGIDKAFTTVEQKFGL
Description: deamination to sulfoacetaldehyde; LC-MS. Type of series: biochemical.

Series [3] concerns the target T2, AdhE (CoA-acylating aldehyde dehydrogenase) (Bilophila wadsworthia, UniProt E5Y379).
T2 construct: His-tagged, E. coli BL21
T2 sequence (E5Y379 1-484): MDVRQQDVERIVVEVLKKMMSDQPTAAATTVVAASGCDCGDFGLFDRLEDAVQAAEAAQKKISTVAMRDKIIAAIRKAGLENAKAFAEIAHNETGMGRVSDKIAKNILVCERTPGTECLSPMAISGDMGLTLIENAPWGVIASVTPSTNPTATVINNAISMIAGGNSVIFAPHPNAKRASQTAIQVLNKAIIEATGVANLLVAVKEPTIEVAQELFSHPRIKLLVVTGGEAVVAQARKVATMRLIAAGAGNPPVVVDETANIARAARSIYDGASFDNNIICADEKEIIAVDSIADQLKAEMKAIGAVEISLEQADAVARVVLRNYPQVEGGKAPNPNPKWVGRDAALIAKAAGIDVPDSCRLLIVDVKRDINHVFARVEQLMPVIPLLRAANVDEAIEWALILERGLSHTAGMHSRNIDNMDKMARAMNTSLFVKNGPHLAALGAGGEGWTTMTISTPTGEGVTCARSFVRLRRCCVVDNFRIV
Description: conversion to acetyl-CoA. To be noted: CoASH. Type of series: biochemical.

Series [4] deals with T3, SarD (sulfoacetaldehyde reductase) (Bilophila wadsworthia, UniProt E5Y946).
T3 construct: His-tagged, E. coli Rosetta 2 DE3
Description: NADH-dependent reduction to isethionate. Type of series: biochemical.

For series [5], the target named is T4, IslB (GRE-activating enzyme) (Bilophila wadsworthia, UniProt E5Y377).
T4 construct: His-tagged, E. coli BL21(DE3) delta-iscR::kan, anoxic purification, reconstituted, reduced with dithionite
Description: glycyl radical installation on IslA, EPR. Type of series: biochemical. To be noted: anoxic, acriflavine as photosensitizer.

Substrate in series [6]: O=S(=O)(O)CCO
Description: coupled spectrophotometric assay with yeast alcohol dehydrogenase. To be noted: anoxic; activated enzyme. The class given is biochemical, Desulfovibrio desulfuricans. An excerpt: coupled spectrophotometric assay with yeast alcohol dehydrogenase on GRE IslA of D. desulfuricans DSM642 | selectivity for the cleavage of isethionate to sulfite and acetaldehyde, but a modest apparent kcat/Km

T3 sequence (E5Y946 whole entry): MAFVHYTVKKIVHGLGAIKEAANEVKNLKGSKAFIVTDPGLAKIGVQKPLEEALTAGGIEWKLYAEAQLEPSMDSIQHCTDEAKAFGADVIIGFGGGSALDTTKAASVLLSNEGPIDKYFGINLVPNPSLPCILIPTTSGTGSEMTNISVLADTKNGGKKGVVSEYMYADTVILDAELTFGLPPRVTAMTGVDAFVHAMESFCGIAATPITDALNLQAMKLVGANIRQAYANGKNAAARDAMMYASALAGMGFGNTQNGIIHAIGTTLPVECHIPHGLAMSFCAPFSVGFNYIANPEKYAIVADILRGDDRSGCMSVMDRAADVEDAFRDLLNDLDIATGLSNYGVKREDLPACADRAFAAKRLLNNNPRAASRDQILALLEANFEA
T4 sequence (E5Y377 whole entry): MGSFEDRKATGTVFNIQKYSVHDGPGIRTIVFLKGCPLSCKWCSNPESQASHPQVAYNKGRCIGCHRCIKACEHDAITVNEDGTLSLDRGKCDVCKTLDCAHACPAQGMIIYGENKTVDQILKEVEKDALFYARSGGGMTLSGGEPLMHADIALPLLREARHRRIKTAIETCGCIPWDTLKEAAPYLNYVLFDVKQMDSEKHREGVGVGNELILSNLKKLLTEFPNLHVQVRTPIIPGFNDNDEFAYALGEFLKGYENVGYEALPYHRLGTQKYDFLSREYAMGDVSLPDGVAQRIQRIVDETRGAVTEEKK
T4 sequence (E5Y378 whole entry, further chain): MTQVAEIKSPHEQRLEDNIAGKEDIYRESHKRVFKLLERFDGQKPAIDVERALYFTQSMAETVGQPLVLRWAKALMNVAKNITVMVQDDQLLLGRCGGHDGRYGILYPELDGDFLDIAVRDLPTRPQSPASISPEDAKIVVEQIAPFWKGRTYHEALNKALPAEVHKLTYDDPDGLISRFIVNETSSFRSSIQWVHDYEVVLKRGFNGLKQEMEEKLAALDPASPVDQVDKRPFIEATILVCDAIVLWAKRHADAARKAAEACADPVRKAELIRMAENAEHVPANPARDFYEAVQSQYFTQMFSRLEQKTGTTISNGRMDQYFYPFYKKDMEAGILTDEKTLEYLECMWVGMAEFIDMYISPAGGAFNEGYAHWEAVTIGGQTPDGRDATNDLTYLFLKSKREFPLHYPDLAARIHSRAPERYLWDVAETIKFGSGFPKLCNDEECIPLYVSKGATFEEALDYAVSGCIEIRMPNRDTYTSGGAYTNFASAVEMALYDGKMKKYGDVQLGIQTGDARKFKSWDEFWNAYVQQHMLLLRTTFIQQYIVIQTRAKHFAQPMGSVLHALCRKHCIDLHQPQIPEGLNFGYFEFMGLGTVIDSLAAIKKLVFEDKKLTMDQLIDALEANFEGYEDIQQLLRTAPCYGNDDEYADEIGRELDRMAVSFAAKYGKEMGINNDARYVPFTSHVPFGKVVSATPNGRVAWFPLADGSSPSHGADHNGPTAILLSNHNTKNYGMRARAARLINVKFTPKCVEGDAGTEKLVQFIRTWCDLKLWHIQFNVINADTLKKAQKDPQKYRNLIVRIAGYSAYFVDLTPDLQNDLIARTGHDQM

In general, Km refers to the substrate concentration at which the rate is half of its maximum. As a reminder, the kcat is the maximal rate divided by the concentration of active sites. For the molecule “IslA (isethionate sulfite-lyase) (Bilophila wadsworthia 3_1_6)”, in series [1], the Km is reported as 8.1 ± 0.8 mM and the kcat amounted to 14 ± 0.4 s⁻¹. For `NCCS(=O)(=O)O` [taurine, 2-aminoethanesulfonate], the “deamination to sulfoacetaldehyde; LC-MS” value in series [2] (pyruvate) is “Tpa catalyzes the deamination of taurine with pyruvate to generate sulfoacetaldehyde and alanine”. Turning to `CC=O` [acetaldehyde], the “conversion to acetyl-CoA” value in series [3] (NAD+) is “converted acetaldehyde to acetyl-CoA only in the presence of CoASH and NAD^+”. In the case of `O=CCS(=O)(=O)O` [sulfoacetaldehyde], in series [4] (NADH), the “NADH-dependent reduction to isethionate” value was “SarD reduces sulfoacetaldehyde to isethionate in an NADH-dependent manner”. For `NC(=O)c1ccc[n+]([C@@H]2O[C@H](COP(=O)(O)OP(=O)(O)OC[C@H]3O[C@@H](n4cnc5c(N)ncnc54)[C@H](O)[C@@H]3O)[C@@H](O)[C@H]2O)c1` [NAD^+], the “conversion to acetyl-CoA” value in series [3] (acetaldehyde) was “it preferred NAD^+ over NADP^+”. Turning to `C[S+](CC[C@H](N)C(=O)O)C[C@H]1O[C@@H](n2cnc3c(N)ncnc32)[C@H](O)[C@@H]1O` (some centres unmarked) [SAM], the “glycyl radical installation on IslA, EPR” value in series [5] was “incubated with the purified GRE IslA in the presence of SAM and acriflavine”. On to `NC(=O)C1=CN([C@@H]2O[C@H](COP(=O)(O)OP(=O)(O)OC[C@H]3O[C@@H](n4cnc5c(N)ncnc54)[C@H](O)[C@@H]3O)[C@@H](O)[C@H]2O)C=CC1` [NADH], for which the “NADH-dependent reduction to isethionate” value in series [4] (sulfoacetaldehyde) is given as “SarD reduces sulfoacetaldehyde to isethionate in an NADH-dependent manner”.

Turning to `CC(=O)C(=O)O` [pyruvate], in series [2] (taurine), the “deamination to sulfoacetaldehyde; LC-MS” value was “Tpa catalyzes the deamination of taurine with pyruvate to generate sulfoacetaldehyde and alanine”.

B1: GRE IslA of D. desulfuricans DSM642 (Desulfovibrio desulfuricans ATCC 27774) (protein)
chain: MSMTTCECRSPQEQRLYDKIEGREDRFRKTHPRVFRLLERFEGQKPRIDIERALYFTQSMQETEGQPLVLRWAKALMHIARNMTVYVQEDQLLLGRAGCDGRYGILYPELDGDFLDIAVRDLPTRKTSPATITPEDARRVVEEIAPYWKGKTYHEALNAALPAEVHKLTYDDPEGLISRFIVNETSSFRSSIQWVHDYEKILKRGFNSIKKEAREKLAALDPLSAKDDREKRPFLEAVMIVCDAIVLWAKRHAVLAREMAEKESDPVRKAELLRMAENAEHVPGEPARDFWEACQSQWFTQMFSRIEQKTGTTISNGRMDQYFQPYYKQDREAGKITEAQAMELLECMWVGMAEFIDMYISPTGGAFNEGYAHWEAVTVGGQTPDGRDASNDLTYLILKSKREFPLHYPDLAARIHSRAPERYLWDVAETIKYGSGFPKLINDEEIVPLYVSKGATFEEALDYAVSGCTEARMPNRDTYTSGGAYINFAAAVEMVLRNGRMKKYGDQKLGVETGDPRSFTTWDQFWNAYVEQHLLFLKTAFTQQYIINKLRAEHFAQPMGSAMHDLCMKHCIDLHQEQIPEGINLGYFEYMGLGTVVDSLAAVKKLVFEEKKLSMDKLIAAIDADFEGYEDVRALLRSAPCYGNNDEYADAIGRDIDRISVEYGNKYSMSDLGIHNDVRYVPFTSHVPFGKVVSATPNGRTDGFPLSDGSSASHGADVNGPTAVLLSNCTTKNMGLRDRAARMLNIKFTPKCVEGEQGTEKLVSFIRTFCDLKLWHVQFNVVNKGTLVAAQKDPQKYRNLIVRIAGYSAYFVDLSPDLQNDLIARTEHDVM
notes: His-tagged, E. coli BL21
For B1, in series [6], the Km was 6.3 ± 0.5 mM and the kcat came to 12 ± 0.2 s⁻¹.

(Values after paper PMC6386719, “A glycyl radical enzyme enables hydrogen sulfide production by the human intestinal bacterium Bilophila wadsworthia” (Proceedings of the National Academy of Sciences of the …, 2019).)
